Assay results published in patent US20050065436A1, “Rapid and non-invasive optical detection of internal bleeding” (priority 2003, published 2005).

Test: NIR absorption and fluorescence spectra of indocyanine green
Assay type: physicochemical
Excerpt: Many NIR fluorescence compounds are potential candidates for the present application. One of examples, indocyanine green (ICG), because of its low toxicity, has been used in many clinical applications. Indocyanine green, molecular weight 775, is a tricarbocyanine type of green dye. FIG. 2 and FIG. 3 show the NIR absorption, 650-850 nm, and NIR fluorescence spectra, 650-900 nm, of ICG, respectively. ICG has little absorption in the visible light. However, it is easily excited by an NIR light source with high quantum efficiency. Diode laser light sources with a wavelength between […] is suitable for ICG excitation. The fluorescent peak has a large red shifted relatively to the excitation wavelength. The fluorescence peak at 810 nm is within the NIR window for tissue optics. Due to ICG has a very large fluorescent quantum yield and a distinct peak at 810 nm, a sensitivity of 0.5 μg/ml can be achieved easily. FIG. 3(a), (b), and (c) show the fluorescence spectra of ICG in blood samples with various concentration between 0.5-500 μg/ml

## CC1(C)C(/C=C/C=C/C=C/C=C2\N(CCCCS(=O)(=O)O)c3ccc4ccccc4c3C2(C)C)=[N+](CCCCS(=O)(=O)[O-])c2ccc3ccccc3c21 [ICG, Indocyanine green]
FIG. 3
  NIR fluorescence spectra: 650-900 nm
FIG. 3, concentrations 0.5-500 μg/ml
  fluorescence peak: 810 nm
Absorption spectrum, FIG. 2
  NIR absorption: 650-850 nm
